Measurements reported in patent publication US8076487B2, “Pyridone derivative and herbicide” (Kumiai Chemical Industry Co., Ltd., priority 2006, dated 2011).

Columns and labels:
Assay type in all cases: in vivo
[1] = system: Japanese bulrush (Scirpus juncoides Roxb.); assay: Test Example 1: herbicidal effect by soil application to paddy field; settings: paddy field soil application; active ingredient 1,000 g per 1 hectare; wettable powder added dropwise to water surface the day after sowing; examined on the 21st day after application
How it was run: (§1)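 Plants were sown in flooded (3 cm) paddy soil and evaluated for herbicidal effect 21 days after soil application in a greenhouse.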

[2] = system: early watergrass (Echinochloa oryzicola Vasing); assay: as above; settings: paddy field soil application; active ingredient 1,000 g per 1 hectare; wettable powder added dropwise to water surface the day after sowing; examined on the 21st day after application
How it was run: as §1

[3] = system: heartshape false pickerelweed (Monochoria vaginalis (Burm.f.) C.Presl); assay: as above; settings: paddy field soil application; active ingredient 1,000 g per 1 hectare; wettable powder added dropwise to water surface the day after sowing; examined on the 21st day after application
How it was run: as §1

[4] = system: barnyardgrass (Echinochloa crus-galli (L.) P. Beauv. var. crus-galli); assay: Test Example 2: herbicidal effect by soil application to upland field; settings: soil surface spray, upland field soil, 1,000 g active ingredient per hectare, 21st day after application
How it was run: (§2)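 Soil surface treatment after sowing: wettable powder in water, 1,000 g a.i./ha, spray volume 1,000 L/ha. Greenhouse. Scored on a standard herbicidal scale at day 21.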

[5] = system: green foxtail (Setaria viridis (L.) P. Beauv.); assay: as above; settings: soil surface spray, upland field soil, 1,000 g active ingredient per hectare, 21st day after application
How it was run: as §2

[6] = system: slender amaranth (Amaranthus viridis L.); assay: as above; settings: soil surface spray, upland field soil, 1,000 g active ingredient per hectare, 21st day after application
How it was run: as §2

[7] = system: velvetleaf (Abutilon theophrasti medicus); assay: as above; settings: soil surface spray, upland field soil, 1,000 g active ingredient per hectare, 21st day after application
How it was run: as §2

[8] = system: barnyardgrass (Echinochloa crus-galli (L.) P. Beauv. var. crus-galli); assay: Test Example 3: herbicidal effect by application to upland field (foliage treatment); settings: foliage treatment, plants grown two weeks, 1,000 g active ingredient per hectare, 14th day after application
How it was run: (§3)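 Post-emergence spray at 1,000 g AI/ha of wettable powder in water (1,000 L/ha), onto seedlings grown 2 weeks in greenhouse field-soil pots. Graded day 14.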

[9] = system: green foxtail (Setaria viridis (L.) P. Beauv.); assay: as above; settings: foliage treatment, plants grown two weeks, 1,000 g active ingredient per hectare, 14th day after application
How it was run: as §3

[10] = system: slender amaranth (Amaranthus viridis L.); assay: as above; settings: foliage treatment, plants grown two weeks, 1,000 g active ingredient per hectare, 14th day after application
How it was run: as §3

[11] = system: velvetleaf (Abutilon theophrasti medicus); assay: as above; settings: foliage treatment, plants grown two weeks, 1,000 g active ingredient per hectare, 14th day after application
How it was run: as §3

Structure (SMILES)	herbicidal effect, Scirpus juncoides Roxb. [1]	herbicidal effect, Echinochloa oryzicola Vasing [2]	herbicidal effect, Monochoria vaginalis (Burm. f.) C. Presl [3]	herbicidal effect (index), Barnyardgrass [4]	herbicidal effect (index), Green Foxtail [5]	herbicidal effect (index), Slender Amaranth [6]	herbicidal effect (index), Velvetleaf [7]	herbicidal effect (index), Barnyardgrass [8]	herbicidal effect (index), Green Foxtail [9]	herbicidal effect (index), Slender Amaranth [10]	herbicidal effect (index), Velvetleaf [11]
COCC(C)n1c(C(F)(F)F)ccc(C(=O)C2=C(O)CCCC2=O)c1=O (stereo not shown) [I-33]	5 (90% or more of herbicidal effect and crop phytotoxicity)	5 (90% or more of herbicidal effect and crop phytotoxicity)	5 (90% or more of herbicidal effect and crop phytotoxicity)	5 (90% or more of herbicidal effect and crop phytotoxicity)	3 (50 to less than 70% of herbicidal effect and crop phytotoxicity)	5 (90% or more of herbicidal effect and crop phytotoxicity)	5 (90% or more of herbicidal effect and crop phytotoxicity)	5 (90% or more of herbicidal effect and crop phytotoxicity)	4 (70 to less than 90% of herbicidal effect and crop phytotoxicity)	5 (90% or more of herbicidal effect and crop phytotoxicity)	5 (90% or more of herbicidal effect and crop phytotoxicity)
COCCOCCn1c(C(F)(F)F)ccc(C(=O)C2=C(O)CCCC2=O)c1=O [I-34]	5 (90% or more of herbicidal effect and crop phytotoxicity)	5 (90% or more of herbicidal effect and crop phytotoxicity)	5 (90% or more of herbicidal effect and crop phytotoxicity)	5 (90% or more of herbicidal effect and crop phytotoxicity)	5 (90% or more of herbicidal effect and crop phytotoxicity)	5 (90% or more of herbicidal effect and crop phytotoxicity)	5 (90% or more of herbicidal effect and crop phytotoxicity)	5 (90% or more of herbicidal effect and crop phytotoxicity)	5 (90% or more of herbicidal effect and crop phytotoxicity)	5 (90% or more of herbicidal effect and crop phytotoxicity)	5 (90% or more of herbicidal effect and crop phytotoxicity)
N#CCCn1c(C(F)(F)F)ccc(C(=O)C2=C(O)CCCC2=O)c1=O [I-44]	5 (90% or more of herbicidal effect and crop phytotoxicity)	5 (90% or more of herbicidal effect and crop phytotoxicity)	5 (90% or more of herbicidal effect and crop phytotoxicity)	5 (90% or more of herbicidal effect and crop phytotoxicity)	5 (90% or more of herbicidal effect and crop phytotoxicity)	5 (90% or more of herbicidal effect and crop phytotoxicity)	5 (90% or more of herbicidal effect and crop phytotoxicity)	5 (90% or more of herbicidal effect and crop phytotoxicity)	5 (90% or more of herbicidal effect and crop phytotoxicity)	5 (90% or more of herbicidal effect and crop phytotoxicity)	5 (90% or more of herbicidal effect and crop phytotoxicity)
CSCn1c(C(F)(F)F)ccc(C(=O)C2=C(O)CCCC2=O)c1=O [I-46]	5 (90% or more of herbicidal effect and crop phytotoxicity)	5 (90% or more of herbicidal effect and crop phytotoxicity)	5 (90% or more of herbicidal effect and crop phytotoxicity)	5 (90% or more of herbicidal effect and crop phytotoxicity)	3 (50 to less than 70% of herbicidal effect and crop phytotoxicity)	5 (90% or more of herbicidal effect and crop phytotoxicity)	5 (90% or more of herbicidal effect and crop phytotoxicity)	5 (90% or more of herbicidal effect and crop phytotoxicity)	3 (50 to less than 70% of herbicidal effect and crop phytotoxicity)	5 (90% or more of herbicidal effect and crop phytotoxicity)	5 (90% or more of herbicidal effect and crop phytotoxicity)
CCSCn1c(C(F)(F)F)ccc(C(=O)C2=C(O)CCCC2=O)c1=O [I-48]	5 (90% or more of herbicidal effect and crop phytotoxicity)	5 (90% or more of herbicidal effect and crop phytotoxicity)	5 (90% or more of herbicidal effect and crop phytotoxicity)	5 (90% or more of herbicidal effect and crop phytotoxicity)	4 (70 to less than 90% of herbicidal effect and crop phytotoxicity)	5 (90% or more of herbicidal effect and crop phytotoxicity)	5 (90% or more of herbicidal effect and crop phytotoxicity)	5 (90% or more of herbicidal effect and crop phytotoxicity)	5 (90% or more of herbicidal effect and crop phytotoxicity)	5 (90% or more of herbicidal effect and crop phytotoxicity)	5 (90% or more of herbicidal effect and crop phytotoxicity)
CCS(=O)(=O)Cn1c(C(F)(F)F)ccc(C(=O)C2=C(O)CCCC2=O)c1=O [I-49]	5 (90% or more of herbicidal effect and crop phytotoxicity)	5 (90% or more of herbicidal effect and crop phytotoxicity)	5 (90% or more of herbicidal effect and crop phytotoxicity)	5 (90% or more of herbicidal effect and crop phytotoxicity)	4 (70 to less than 90% of herbicidal effect and crop phytotoxicity)	5 (90% or more of herbicidal effect and crop phytotoxicity)	5 (90% or more of herbicidal effect and crop phytotoxicity)	5 (90% or more of herbicidal effect and crop phytotoxicity)	5 (90% or more of herbicidal effect and crop phytotoxicity)	5 (90% or more of herbicidal effect and crop phytotoxicity)	5 (90% or more of herbicidal effect and crop phytotoxicity)
CCCSCn1c(C(F)(F)F)ccc(C(=O)C2=C(O)CCCC2=O)c1=O [I-50]	5 (90% or more of herbicidal effect and crop phytotoxicity)	5 (90% or more of herbicidal effect and crop phytotoxicity)	5 (90% or more of herbicidal effect and crop phytotoxicity)	5 (90% or more of herbicidal effect and crop phytotoxicity)	5 (90% or more of herbicidal effect and crop phytotoxicity)	5 (90% or more of herbicidal effect and crop phytotoxicity)	5 (90% or more of herbicidal effect and crop phytotoxicity)	5 (90% or more of herbicidal effect and crop phytotoxicity)	3 (50 to less than 70% of herbicidal effect and crop phytotoxicity)	5 (90% or more of herbicidal effect and crop phytotoxicity)	5 (90% or more of herbicidal effect and crop phytotoxicity)
CCCS(=O)(=O)Cn1c(C(F)(F)F)ccc(C(=O)C2=C(O)CCCC2=O)c1=O [I-51]	5 (90% or more of herbicidal effect and crop phytotoxicity)	5 (90% or more of herbicidal effect and crop phytotoxicity)	5 (90% or more of herbicidal effect and crop phytotoxicity)	5 (90% or more of herbicidal effect and crop phytotoxicity)	5 (90% or more of herbicidal effect and crop phytotoxicity)	5 (90% or more of herbicidal effect and crop phytotoxicity)	5 (90% or more of herbicidal effect and crop phytotoxicity)	5 (90% or more of herbicidal effect and crop phytotoxicity)	5 (90% or more of herbicidal effect and crop phytotoxicity)	5 (90% or more of herbicidal effect and crop phytotoxicity)	5 (90% or more of herbicidal effect and crop phytotoxicity)
